Experimental findings from ChEMBL document CHEMBL1201862, “PubChem BioAssay data set” (2004) are described below.

Activity calls are given as the source filed them.

Assay [1] can be described thus: luciferase reporter signal suppression in cells – H4 neuroglioma cells, luminescence, dose response (AID 1990). Format: functional, cell-based.
A short description of assay [2]: Luminescence Cell-Based Dose Response HTS to Identify Inhibitors of 5'UTR Stem-Loop Driven Prion Protein mRNA Translation in H4 Neuroglioblastoma Cells. [Related pubchem assays: 1827 (Project Summary), 1813 (Primary HTS)]. In kind it is functional.
Assay [3] can be described thus: alpha-synuclein stem-loop luciferase translation blockers – H4 neuroglioma cells, luminescence, confirmation (AID 1988). In kind it is functional, cell-based.
The nature of assay [4]: Trypanosoma cruzi growth suppression in host cells – NIH3T3 host cells, beta-gal luminescence, confirmation (AID 2044).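 Note: intracellular parasites grown in NIH/3T3 mouse fibroblasts as host cells; luminescent beta-galactosidase reporter signal from transgenic T. cruzi replicating inside host cells; inhibitors lower the luminescence signal.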 Format: functional, cell-based.
A short description of assay [5]: NIH3T3 cell viability loss – ATP luminescence, mouse fibroblasts, counter-screen, dose response (AID 2010).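 Note: cells exposed to compound for about 90 hours before reading.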 In kind it is functional, cell-based. A general note: Counterscreens check selectivity or assay interference.
Assay [6] deals with T1, RNA-binding protein pos-1 (Caenorhabditis elegans, UniProt G5EF15).
T1 sequence (G5EF15 whole entry): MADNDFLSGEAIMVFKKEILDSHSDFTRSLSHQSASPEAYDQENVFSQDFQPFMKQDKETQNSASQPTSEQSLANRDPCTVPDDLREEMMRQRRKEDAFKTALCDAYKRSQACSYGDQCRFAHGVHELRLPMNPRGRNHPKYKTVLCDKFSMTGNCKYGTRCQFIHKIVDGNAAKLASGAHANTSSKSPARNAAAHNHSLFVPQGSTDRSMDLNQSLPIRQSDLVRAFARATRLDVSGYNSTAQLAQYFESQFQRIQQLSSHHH
The experiment in a line: disruptors of C. elegans POS-1 RNA interaction – biochemical, fluorescence polarization, dose response (AID 1964).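 Note: purified POS-1 fused to maltose binding protein made in E. coli; potency of compounds blocking POS-1 binding to fluorescent RNA.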

The target of assay [7] is T2, Zinc finger protein mex-5 (Caenorhabditis elegans, UniProt Q9XUB2).
T2 sequence (Q9XUB2 whole entry): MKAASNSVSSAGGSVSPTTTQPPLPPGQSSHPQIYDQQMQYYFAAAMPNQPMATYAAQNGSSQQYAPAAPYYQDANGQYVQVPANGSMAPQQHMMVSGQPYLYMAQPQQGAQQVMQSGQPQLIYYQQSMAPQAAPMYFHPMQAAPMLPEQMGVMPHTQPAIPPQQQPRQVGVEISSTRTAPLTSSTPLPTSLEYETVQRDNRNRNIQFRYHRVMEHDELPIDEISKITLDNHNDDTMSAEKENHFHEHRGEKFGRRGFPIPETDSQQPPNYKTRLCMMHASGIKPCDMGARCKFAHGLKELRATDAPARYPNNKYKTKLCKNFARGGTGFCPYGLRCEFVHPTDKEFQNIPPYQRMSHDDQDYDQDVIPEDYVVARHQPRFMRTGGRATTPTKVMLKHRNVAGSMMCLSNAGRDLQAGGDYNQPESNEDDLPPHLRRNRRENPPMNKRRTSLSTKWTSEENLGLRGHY
The experiment in a line: potency of MEX-5 RNA-binding blockers – biochemical, C. elegans, fluorescence polarization, dose response (AID 1960).

In assay [8] the target is Cytochrome P450 3A4 (Homo sapiens, UniProt P08684).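 Note: CYP3A4 tested as one member of a cytochrome P450 panel screen.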
Sequence of Cytochrome P450 3A4 (P08684 whole entry): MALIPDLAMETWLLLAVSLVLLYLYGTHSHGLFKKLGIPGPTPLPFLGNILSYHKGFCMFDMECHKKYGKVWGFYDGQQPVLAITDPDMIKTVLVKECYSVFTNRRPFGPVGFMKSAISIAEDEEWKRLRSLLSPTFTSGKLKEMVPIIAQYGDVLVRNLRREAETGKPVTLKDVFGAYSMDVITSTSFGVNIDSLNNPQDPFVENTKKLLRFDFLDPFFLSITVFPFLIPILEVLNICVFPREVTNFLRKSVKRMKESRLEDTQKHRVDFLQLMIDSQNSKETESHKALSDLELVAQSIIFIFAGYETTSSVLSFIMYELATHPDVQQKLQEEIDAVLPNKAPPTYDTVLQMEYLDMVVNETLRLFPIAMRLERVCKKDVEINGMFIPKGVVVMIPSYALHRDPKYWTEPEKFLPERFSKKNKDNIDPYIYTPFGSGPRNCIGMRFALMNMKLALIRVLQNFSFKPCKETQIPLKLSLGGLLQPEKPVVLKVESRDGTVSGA
Assay [9] in a line: NIH-3T3 fibroblast cytotoxicity, dose response, cytotoxicity control, cell-based, fluorescence, Alamar Blue, secondary assay (AID 2327).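 Note: NIH-3T3 mouse fibroblasts cultured with fluconazole at 8 µg/mL.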 In kind it is functional.
The nature of assay [10]: fluconazole-exposed Candida albicans growth modulators – fluorescence, retest, confirmation (AID 2467). Format: functional, cell-based.
Assay [11] in a line: Luminescence Cell-Based Dose Response HTS to Identify Activators of Luciferase Translation or Activity in H4 […] Cells. [Related pubchem assays: 1829 (Project Summary), 1814 (Primary HTS)]. In kind it is functional.
Assay [12] has as its system H4. Nature of the assay: Luminescence Cell-Based Dose Response HTS to Identify Activators of 5'UTR Stem-Loop Driven Prion Protein mRNA Translation in H4 Neuroglioblastoma Cells. [Related pubchem assays: 1829 (Project Summary), 1814 (Primary HTS)]. In kind it is functional. As to conditions: Homo sapiens.
Assay [13] can be described thus: viability of PTEN-deleted HCT116 cells – cell-based, HCT116 PTEN knockout, dose response (AID 1047).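 Note: HCT116 colon tumor cells with PTEN knocked out; cells exposed to compound for 60 hours before readout; potency for loss of cell viability measured by luminescence.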 Format: functional.
The nature of assay [14]: viability of HCT116 lacking mutant beta-catenin – cell-based, human colon tumor, dose response (AID 1045).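 Note: HCT116 colon tumor cells with beta catenin knocked out; cells exposed to compound for 60 hours.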 Format: functional.
Assay [15] is described as follows: Luminescence Cell-Based Dose Retest to Confirm Inhibitors of Cancer Stem Cells. [Related pubchem assays (depositor defined):AID2717, AID2721]. In kind it is functional. As to conditions: Homo sapiens.
Assay [16] addresses Cytochrome P450 2C19 (Homo sapiens, UniProt P33261). The experiment in a line: Cytochrome panel assay with activity outcomes. Panel member name: p450-cyp2c19 Compounds with AC50 equal or less than 10 uM are considered active. Format: functional. The settings on record: read-out: AC50.
Assay [17] deals with Cytochrome P450 2C9 (Homo sapiens, UniProt P11712).
Sequence of Cytochrome P450 2C9 (P11712 whole entry): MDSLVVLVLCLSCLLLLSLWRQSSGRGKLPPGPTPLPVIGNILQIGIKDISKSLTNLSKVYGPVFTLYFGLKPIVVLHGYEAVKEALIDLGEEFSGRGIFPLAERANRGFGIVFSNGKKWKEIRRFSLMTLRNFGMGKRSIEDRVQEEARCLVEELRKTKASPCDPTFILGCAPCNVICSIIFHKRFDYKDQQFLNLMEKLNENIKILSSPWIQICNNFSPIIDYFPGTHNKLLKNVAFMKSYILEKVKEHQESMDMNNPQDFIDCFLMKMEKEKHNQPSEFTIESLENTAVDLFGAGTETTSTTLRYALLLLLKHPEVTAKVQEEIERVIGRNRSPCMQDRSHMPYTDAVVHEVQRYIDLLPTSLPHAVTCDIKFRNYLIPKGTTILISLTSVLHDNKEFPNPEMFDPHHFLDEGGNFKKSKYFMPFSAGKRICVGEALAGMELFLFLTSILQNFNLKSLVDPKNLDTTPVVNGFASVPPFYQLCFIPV

Sequence of Cytochrome P450 2C19 (P33261 whole entry): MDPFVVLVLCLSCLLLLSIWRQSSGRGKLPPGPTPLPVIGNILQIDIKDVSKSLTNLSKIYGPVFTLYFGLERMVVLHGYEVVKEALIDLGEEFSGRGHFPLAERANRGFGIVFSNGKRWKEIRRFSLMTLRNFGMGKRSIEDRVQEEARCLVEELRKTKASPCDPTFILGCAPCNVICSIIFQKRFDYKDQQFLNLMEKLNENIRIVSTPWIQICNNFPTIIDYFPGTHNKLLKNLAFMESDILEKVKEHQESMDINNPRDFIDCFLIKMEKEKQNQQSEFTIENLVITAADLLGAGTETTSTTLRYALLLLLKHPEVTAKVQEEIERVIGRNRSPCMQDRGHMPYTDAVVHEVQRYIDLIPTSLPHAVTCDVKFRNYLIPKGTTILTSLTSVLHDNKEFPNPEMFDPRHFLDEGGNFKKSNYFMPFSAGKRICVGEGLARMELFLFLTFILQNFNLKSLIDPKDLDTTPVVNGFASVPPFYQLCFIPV

Turning to `O=C(c1cnn2c(C(F)(F)F)cc(-c3ccccc3)nc12)N1CCCCC1c1cccnc1` (stereo not given), the EC50 in assay [1] was > 120 µM (not active); in assay [2], 75.7 µM (active); in assay [3], > 120 µM (not active); in assay [4] it was 0.506 µM (active); in assay [5], > 60 µM (not active).

Take `CC(=O)Nc1ccc(S(=O)(=O)NCc2nc(-c3cccc(C)c3)no2)cc1`: the EC50 is 85.6 µM (active) in [6] and > 300 µM (not active) in assay [7].

With `CC(C)NC(=O)N1CCCC2(CCN(C(=O)c3cccn3C)CC2)C1`, the AC50 in assay [8] is 25.1 µM (inconclusive).

Consider `O=C(NNC(=O)c1cnccn1)c1cccc([N+](=O)[O-])c1`, for which the EC50 in assay [6] was 22.1 µM (active); in [7], 1.03 µM (active).

For the compound `CCOC(=O)c1sc(Nc2nc3c(OC)cccc3s2)nc1C`, the EC50 in assay [9] is 48.9 µM (active); in assay [10], 2.8 µM (active).

For the compound `O=c1c(-c2cccs2)nc2cnc(N3CCOCC3)nc2n1CCc1ccccc1`, the AC50 in [8] is 12.6 µM (inconclusive).

Turning to `Nc1n[nH]c2nc3ccccc3nc12` [QUINOXALINE1], the AC50 in [8] is 0.126 µM (inconclusive).

Take `Cc1ccc(OCCCC(=O)NCc2ccco2)cc1`: the AC50 in assay [8] was 17.8 µM (inconclusive).

As to `Cn1cccc1CNC(=O)Nc1ccc(Cl)c(Cl)c1`, the EC50 in assay [11] is 1.66 µM (active); in [12], > 120 µM (not active).

For the compound `COc1ccc(Oc2c(Cl)cnn(-c3ccc(Cl)c(Cl)c3)c2=O)cc1`, the EC50 in [1] was 15 µM (active); in assay [2], 13.4 µM (active); in [3], 8.46 µM (active); in [13], 91.6 µM (active); in [14] it was 10.8 µM (active). The concentration at half-maximal activity (AC50) in assay [15] was 4.57 µM (active).

As to `CC(C)=NO[C@@H](C)c1cc(-c2c(C)cc(C)cc2C)no1`, the AC50 in assay [16] was 0.631 µM (inconclusive); in [8] it was 3.16 µM (inconclusive).

`CSCC(C)N1CCC(n2nccc2NC(=O)CCCc2ccccc2)CC1` (stereo not given): the EC50 in assay [6] was 6.99 µM (active); in assay [7] it was 8.67 µM (active).

`Nc1ccc(S(=O)(=O)NNC(=O)C(=O)NNc2ccccc2)cc1`: the EC50 in assay [9] is 1.48 µM (active); in assay [10], > 38 µM (not active); in assay [4] it was 0.75 µM (active); in assay [5] it was 1.96 µM (active).

As to `CCCCC(=O)Nc1nc(C)c(-c2csc(Nc3cc(OC)ccc3OC)n2)s1`, the EC50 in assay [1] is 12.2 µM (active); in [2], 18.2 µM (active); in assay [3], 7.93 µM (active). In addition, the AC50 in assay [15] is 1.35 µM (active).

As to `CC(C)(C)c1nn(-c2ccccc2)c2[nH]c(=O)c(CNCc3ccco3)cc12`, the EC50 in assay [6] and in [7] was > 300 µM (not active) throughout.

Take `N#CCCn1c(=O)c(-c2cccs2)nc2cnc(Oc3cccc(Cl)c3)nc21`: the AC50 in assay [8] was 7.94 µM (inconclusive); in assay [17], 6.31 µM (inconclusive).

Turning to `CS(=O)(=O)c1ccc(-c2cc(Br)sc2-c2ccc(F)cc2)cc1` [DUP-697], in [8], the AC50 is 20 µM (inconclusive).

For `Cc1ccc(CS(=O)(=O)CCC(=O)NCCCOC(C)C)cc1`, the concentration at half-maximal activity (AC50) in assay [8] is 35.5 µM (inconclusive).

On to `COc1cccc(Nc2ncc3nc(C)c(=O)n(CCc4ccccc4)c3n2)c1`, for which, in [17], the AC50 was 3.16 µM (inconclusive).

`COc1cccc(CN2C(=O)C3(C(C#N)=C(N)OC4=C3C(=O)CCC4)c3ccccc32)c1` (stereo not given): the EC50 is > 160 µM (inconclusive) in [9]; 19.2 µM (active) in [1]; > 300 µM (not active) in [6]; > 120 µM (not active) in assay [2]; > 300 µM (not active) in assay [7]; 20.1 µM (active) in assay [3]. Moreover, the EC50 in [10] was 1.24 µM (active).

Take `Cc1cc(C(F)(F)F)n2nc(-c3cnn(C)c3C(F)(F)F)cc2n1`: the figures for the AC50 in assay [8] and in [17] were 17.8 µM (inconclusive) and 7.08 µM (inconclusive), respectively.

For `O=C(Cn1nnc2ccccc21)N/N=C\C=C\c1ccccc1`, the values for the AC50 in [16] and in assay [17] were 14.1 µM (inconclusive) and 12.6 µM (inconclusive), respectively.

For the compound `Cc1cc(C)cc(N(C(=O)c2ccccn2)C(C(=O)NC2CCCCC2)c2cccs2)c1` (stereo not given), the results for the AC50 in [16] and in [17] were 17.8 µM (inconclusive) and 15.8 µM (inconclusive), respectively.

In the case of `O=C(Nc1ccc(Br)cn1)c1ccc2nccnc2c1`, the EC50 in [6] and in assay [7] was > 300 µM (not active) each time.

In the case of `C=CCN1C(=O)S/C(=C\c2ccc(N3CCOCC3)cc2C)C1=O`, the EC50 in [6] was 40.8 µM (active); in [7], 61.3 µM (inconclusive).

As to `CN1C[C@H](CO)C=C2c3cccc4[nH]cc(c34)C[C@@H]21`, the AC50 in assay [8] is 12.6 µM (inconclusive).

For the compound `NS(=O)(=O)c1cc(C(=O)O)c(O)c2ccccc12`, the AC50 in assay [17] is 3.98 µM (inconclusive).

As for `C1CNCCOCCNCCN1`, the AC50 in assay [17] was 17.8 µM (inconclusive).

`O=C(CCC(=O)Nc1ccccc1Cl)NNS(=O)(=O)c1ccc(Cl)cc1`: the EC50 in assay [9] was > 160 µM (inactive); in assay [10] it was > 38 µM (not active).

As to `Cc1cc2c3c(c1)C1(C(=O)N3C(C)(C)CC2C)C(C#N)=C(N)OC2=C1C(=O)CC(C)(C)C2` (stereo not given), the EC50 in assay [6] and in [7] was > 300 µM (not active) in each case.

Turning to `COc1ccc2c(c1)CCN=C2Cc1ccc(OC)c(OC)c1`, the EC50 is 66.8 µM (active) in assay [9]; > 120 µM (not active) in [1]; > 120 µM (not active) in assay [2]; > 120 µM (not active) in assay [3]; > 38 µM (not active) in assay [10].

`CC(C)(C)c1cc(-c2ccco2)c(C#N)c(SCC#N)n1`: the values for the concentration giving a half-maximal response (EC50) in assay [1], in assay [2] and in assay [3] were 16 µM (active), > 120 µM (not active) and 15.2 µM (active), respectively.

Take `Cc1cccn2c(O)c(C(=O)NC3CC(C)CC(C)(C)C3)c(=O)nc12` (stereo not given): the EC50 is 13.1 µM (active) in assay [1], 2.59 µM (active) in assay [2] and 16.3 µM (active) in assay [3].

As to `Cc1c(Cl)cccc1N1C(=O)NC(=O)/C(=C\c2cc(C)n(-c3cccc(C(=O)O)c3C)c2C)C1=O`, the EC50 in [6] and in assay [7] was > 300 µM (not active) in each case.

Turning to `Cc1cc(C)nc(NC(=O)c2cccc([N+](=O)[O-])c2C)n1`, in assay [17], the AC50 is 11.2 µM (inconclusive).

Consider `CCCOc1cccc(C(=O)Nc2cccnc2)c1`, for which the results for the EC50 in [9] and in assay [10] were > 150 µM (inactive) and > 38 µM (not active), respectively.

As to `COc1ccc(NC(=O)c2cccs2)c([N+](=O)[O-])c1`, the AC50 in [17] is 7.94 µM (inconclusive).

`CC1CCCN(C(=O)c2cccc(S(=O)(=O)Nc3cc(C(F)(F)F)ccc3Cl)c2)C1` (stereo not given): the EC50 in assay [9] is > 150 µM (inactive); in assay [10], > 38 µM (not active).

Take `CCCn1cnc2cc(NCc3cccs3)ccc21`: the EC50 in assay [11] was 11.8 µM (active); in [12] it was 13.4 µM (active).

In the case of `CCSc1nnc(-c2cccnc2)n1-c1ccc(C)c(Cl)c1`, the EC50 in assay [1], in assay [2] and in assay [3] was > 120 µM (not active) throughout.

The EC50 is the concentration giving half of the maximal effect. In general, AC50 refers to the concentration giving half of the maximal activity seen.
